The values below are quoted from earlier work in patent publication US20050042271A1, “Transdermal delivery system for alkaloids of aconitum species” (priority 1999, published 2005).

The conditions of series [1]: all layers of epidermis and dermis; irreversible damage, scarring.

Consider `CCN1C[C@]2(OC(=O)c3ccccc3NC(C)=O)CC[C@H](OC)[C@@]34[C@@H]2C[C@@H]([C@@H]13)[C@@]1(O)C[C@H](OC)[C@H]2C[C@@H]4[C@]1(O)[C@H]2OC` [lappaconitine], for which the “affinity for opioid receptors” value in the series with opioid receptors is “without affinity for opioid receptors”.

Consider `CCN1C[C@@]2(COC)[C@H]3[C@@H](OC)[C@H]4[C@@H]1[C@]3([C@@H](OC)C[C@H]2OC(C)=O)[C@@H]1C[C@@]2(O)[C@H](OC(=O)c3ccccc3)[C@@H]1[C@]4(OC(C)=O)[C@@H](O)[C@@H]2OC` [3-acetylaconitine], for which, in the series with opioid receptors, the “affinity for opioid receptors” value is given as “without affinity for opioid receptors”. Consider `CCCCCCCCCCCCN1CCCCCC1=O` [Azone, laurocapram], for which, in series [1], the skin irritation entry is reported as “severe skin irritation”. With bulleyaconitine A, the “affinity for opioid receptors” value in the series on opioid receptors is “without affinity for opioid receptors”.
